Reference: patent US20150272939A1, “Identification of Small Molecule Inhibitors of Jumonji AT-Rich Interactive Domain 1A (JARID1A) and 1B (JARID1B) Histone Demethylase” (Yale University, priority 2012, published 2015)
Values joined by “and” are separate entries in the source; they are usually repeats but may differ in a detail not shown here. Identical values can stand only once. Counter-ions that a name gives are not always drawn. Like-named read-outs stand apart in the source and are kept apart here.

Experiments:
[1] = AlphaScreen counterscreen against bio-H3K4me2 peptide in the absence of enzyme (artifact signal); conditions: for Artifact Signal (percent): effect of the compound when incubated with bio-H3K4me2 peptide (counterscreen, no enzyme);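 for all read-outs here: counterscreen run without enzyme against bio-H3K4me2 peptide to remove false positive hits from the JARID1 demethylase AlphaScreen screen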
JARID1B = molecular target: T1, JARID1B (Homo sapiens, UniProt Q9UGL1); assay: FLAG-JARID1B histone demethylase assay with AlphaScreen detection (HTS and dose response); assay type: biochemical; conditions: for Assay − Artifact Signal (percent): assay signal minus artifact signal; for inhibition at 20 µM: read-out: Inhibitory effect (percent); for Assay Signal (percent): effect of compound in JARID1B AlphaScreen assay;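 for Assay Signal (percent): compound tested at 20 µM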;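 for Assay − Artifact Signal (percent): compound tested at 20 µM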;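 for all read-outs here: FLAG-tagged JARID1B at 4 nM acting on a biotinylated H3K4me3 peptide, demethylation read by AlphaScreen luminescence, with hits checked against bio-H3K4me2 without enzyme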
T1 construct: The FLAG tagged full length JARID1B enzyme was expressed in Sf21 insect cells using FLAG-JARID1B baculoviruses; FLAG (N); made in house; host or cells: Sf21 insect cells (baculovirus)

[2] = high-throughput screen, compound 20 μM, standard demethylase conditions (10 μM α-KG, 50 μM Fe (II))
[3] = counterscreen, bio-H3K4me2 peptide, no enzyme
[4] = high-throughput screen, compound 20 μM, IDs marked *: additional hits under reaction condition with 1 mM α-KG
[5] = validation of HTS actives, total signal before subtraction of artifact signal

T1 sequence (Q9UGL1 whole entry): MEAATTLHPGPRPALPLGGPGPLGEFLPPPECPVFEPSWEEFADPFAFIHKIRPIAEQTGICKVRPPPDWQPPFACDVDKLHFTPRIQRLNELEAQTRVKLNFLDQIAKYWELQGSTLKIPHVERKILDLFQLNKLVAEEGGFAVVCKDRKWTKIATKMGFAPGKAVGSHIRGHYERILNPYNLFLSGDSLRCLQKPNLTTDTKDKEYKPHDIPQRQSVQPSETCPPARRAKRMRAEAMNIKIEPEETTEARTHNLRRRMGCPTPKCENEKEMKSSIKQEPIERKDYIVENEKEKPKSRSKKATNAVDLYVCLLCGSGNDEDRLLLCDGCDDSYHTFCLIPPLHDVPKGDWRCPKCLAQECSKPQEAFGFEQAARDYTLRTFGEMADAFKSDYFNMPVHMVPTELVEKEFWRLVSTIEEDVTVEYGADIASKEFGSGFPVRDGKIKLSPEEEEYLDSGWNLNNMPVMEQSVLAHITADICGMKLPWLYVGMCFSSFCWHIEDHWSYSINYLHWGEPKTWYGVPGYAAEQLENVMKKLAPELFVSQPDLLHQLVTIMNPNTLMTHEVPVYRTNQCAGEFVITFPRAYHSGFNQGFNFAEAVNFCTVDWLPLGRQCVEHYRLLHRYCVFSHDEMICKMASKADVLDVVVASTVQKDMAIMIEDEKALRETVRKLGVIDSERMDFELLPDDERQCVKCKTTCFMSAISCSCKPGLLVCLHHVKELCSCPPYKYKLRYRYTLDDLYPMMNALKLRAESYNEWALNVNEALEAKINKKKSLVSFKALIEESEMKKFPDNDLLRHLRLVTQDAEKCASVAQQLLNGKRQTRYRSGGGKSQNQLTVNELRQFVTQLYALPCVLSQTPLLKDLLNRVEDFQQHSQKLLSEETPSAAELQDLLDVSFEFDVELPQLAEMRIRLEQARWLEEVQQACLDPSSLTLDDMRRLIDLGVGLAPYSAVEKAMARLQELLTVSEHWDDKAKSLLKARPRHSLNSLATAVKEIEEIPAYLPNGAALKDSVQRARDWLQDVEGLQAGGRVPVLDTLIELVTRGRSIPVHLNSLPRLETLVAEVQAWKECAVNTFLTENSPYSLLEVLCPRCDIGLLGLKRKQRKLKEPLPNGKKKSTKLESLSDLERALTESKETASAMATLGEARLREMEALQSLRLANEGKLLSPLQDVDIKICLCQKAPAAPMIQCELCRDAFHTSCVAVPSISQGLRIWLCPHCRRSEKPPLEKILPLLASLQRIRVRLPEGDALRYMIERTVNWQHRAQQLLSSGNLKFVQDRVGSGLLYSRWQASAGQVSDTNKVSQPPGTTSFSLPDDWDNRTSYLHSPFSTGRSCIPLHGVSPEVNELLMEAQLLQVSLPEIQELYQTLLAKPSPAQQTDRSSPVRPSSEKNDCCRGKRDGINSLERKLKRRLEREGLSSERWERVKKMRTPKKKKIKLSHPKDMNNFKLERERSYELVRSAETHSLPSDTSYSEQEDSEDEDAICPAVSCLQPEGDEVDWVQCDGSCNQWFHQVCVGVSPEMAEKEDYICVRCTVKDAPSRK

Row | SMILES | Artifact Signal (percent) [1] [%] | Assay − Artifact Signal (percent) (JARID1B) [%] | inhibition at 20 µM (JARID1B; [2]) [%] | Assay Signal (percent) (JARID1B; validation of HTS actives) [%] | Artifact signal: effect of the compound when it is incubated with bio-H3K4me2 peptide [1, 3] | Validation result of HTS active: effect of the compound in the JARID1B AlphaScreen demethylase assay (JARID1B; [5]) | other results
1 | NC(CO)C(=O)NNCc1ccc(O)c(O)c1O (centres unmarked) [YU033702, BENSERAZIDE HYDROCHLORIDE, reference compound] | 21.46 | 52.50 | 70.6 | 73.96 |  |  | 
2 | Oc1c(Cl)cc(Cl)cc1Sc1cc(Cl)cc(Cl)c1O [YU033712, BITHIONOL, reference compound] |  |  |  |  | −3.70 | 0.82 | inhibition at 20 µM (JARID1B; [4]): 47.6%
3 | N=C(NCCCCCCNC(=N)NC(=N)Nc1ccc(Cl)cc1)NC(=N)Nc1ccc(Cl)cc1 [YU033734, CHLORHEXIDINE, reference compound] |  |  | 41 |  | 1.97 | −1.12 | 
4 | CN(C)[C@@H]1C(O)=C(C(N)=O)C(=O)[C@@]2(O)C(O)=C3C(=O)c4c(O)ccc(Cl)c4[C@@](C)(O)[C@H]3C[C@@H]12 [YU033743, AUREOMYCIN, reference compound] | 0.43 | 27.81 |  | 28.24 |  |  | inhibition at 20 µM (JARID1B; [4]): 90%
5 | CCN(CC)CCOc1ccc(/C(=C(\Cl)c2ccccc2)c2ccccc2)cc1 [YU033752, CLOMIPHENE CITRATE, reference compound] | 0.86 | 15.81 | 47 | 16.67 |  |  | 
6 | [O-][n+]1ccccc1[S-].[O-][n+]1ccccc1[S-].[Zn+2] [YU033800, PYRITHIONE ZINC, reference compound] |  |  |  |  |  |  | Artifact signal: effect of the compound when it is incubated with bio-H3K4me2 peptide [1]: −19.95; Inhibitory effect (percent) (JARID1B): 99.02%; Validation effect minus artifact signal (JARID1B): 1.60; Validation result of HTS active: effect of the compound in the JARID1B AlphaScreen demethylase assay (JARID1B): −18.35
7 | NCCc1ccc(O)c(O)c1 [YU033802, DOPAMINE HYDROCHLORIDE, reference compound] | 10.00 | 32.68 | 51.3 | 42.68 | −2.83 | −1.42 | Inhibitory effect (percent) (JARID1B; high-throughput screen, compound 20 μM, standard demethylase conditions (10 μM α-KG, 50 μM Fe (II)), HYDROCHLORIDE): 46.86%
8 | CNC[C@H](O)c1ccc(O)c(O)c1 [YU033809, ADRENALINE BITARTRATE, reference compound] | −6.64 | 47.54 | 56.3 | 40.90 |  |  | 
9 | CN(C)c1ccc(C(=C2C=CC(=[N+](C)C)C=C2)c2ccc(N(C)C)cc2)cc1 [YU033841, GENTIAN VIOLET, reference compound] |  |  | 106 |  | 93.38 | 96.28 | 
10 | NC(=O)NO [YU033863, HYDROXYUREA, reference compound] | −8.00 | 21.20 |  | 13.20 |  |  | Inhibitory effect (percent) (JARID1B; [4]): 43.49%
11 | NNC(=O)c1ccncc1 [YU033872, ISONIAZID, reference compound] | −6.34 | 51.63 | 54.5 | 45.10 |  |  | 
12 | CC(C)NCC(O)c1ccc(O)c(O)c1 (centres unmarked) [YU033874, ISOPROTERENOL HYDROCHLORIDE, reference compound] | −2.38 | 35.20 | 47.7 | 32.81 |  |  | 
13 | S=c1[nH]cnc2nc[nH]c12 [YU033892, MERCAPTOPURINE, reference compound] | −2.15 | 35.94 |  | 33.79 |  |  | inhibition at 20 µM (JARID1B; [4]): 56%
14 | COc1ccccc1OCC(O)COC(N)=O (centres unmarked) [YU033898, METHOCARBAMOL, reference compound] |  |  | 93.2 |  | 18.66 | 0.74 | 
15 | C[C@](N)(Cc1ccc(O)c(O)c1)C(=O)O [YU033903, METHYLDOPA, reference compound] | −0.54 | 30.75 | 69.1 | 50.21 |  |  | 
16 | NC[C@H](O)c1ccc(O)c(O)c1 [YU033927, NOREPINEPHRINE, reference compound] | 1.83 | 37.97 | 58.5 | 39.80 |  |  | 
17 | NCCc1cc(O)c(O)cc1O [YU033940, OXIDOPAMINE HYDROCHLORIDE, reference compound] | 16.96 | 19.88 | 41 | 36.84 |  |  | 
18 | COc1cc(NC(C)CCCN)c2ncccc2c1 (centres unmarked) [YU033971, PRIMAQUINE DIPHOSPHATE, reference compound] | −4.11 | 50.60 | 57.5 | 46.49 |  |  | 
19 | Nc1nc2nc[nH]c2c(=S)[nH]1 [YU034024, THIOGUANINE, reference compound] | 0.37 | 36.52 |  | 36.89 |  |  | inhibition at 20 µM (JARID1B; [4]): 52.2%
20 | CC(C)NNC(=O)c1ccncc1 [YU034066, IPRONIAZID SULFATE, reference compound] | 3.41 | 69.09 | 75.9 | 72.51 |  |  | 
21 | O=C([O-])c1ccccc1-c1c2cc(Br)c(=O)cc-2oc2[c]([Hg][OH])c([O-])c(Br)cc12 [YU034068, MERBROMIN, reference compound] |  |  |  |  | −1.81 | 3.43 | Inhibitory effect (percent) (JARID1B; [2]): 99.27%
22 | O=c1c(O)c(-c2ccc(O)c(O)c2)oc2cc(O)cc(O)c12 [YU034090, QUERCETIN, reference compound] |  |  |  |  | 58.14 | 62.82 | Inhibitory effect (percent) (JARID1B; [2]): 80.17%
23 | C/C1=C2/[N-][C@H]([C@H](CC(N)=O)[C@@]2(C)CCC(=O)NC[C@@H](C)OP(=O)([O-])O[C@H]2[C@@H](O)[C@@H](n3cnc4cc(C)c(C)cc43)O[C@@H]2CO)[C@]2(C)N=C(/C(C)=C3N=C(/C=C4N=C1[C@@H](CCC(N)=O)C\4(C)C)[C@@H](CCC(N)=O)[C@]\3(C)CC(N)=O)[C@@H](CCC(N)=O)[C@]2(C)CC(N)=O.[Co] [YU034137, COBALAMINE, reference compound] | 1.27 | 28.34 |  | 27.06 |  |  | Inhibitory effect (percent) (JARID1B; [2]): 63.90%
24 | C=C1c2cccc(O)c2C(=O)C2=C(O)[C@]3(O)C(=O)C(C(N)=O)=C(O)[C@@H](N(C)C)[C@@H]3[C@@H](O)[C@H]12 [YU034167, METHACYCLINE HYDROCHLORIDE, reference compound] |  |  | 51.5 |  | 56.96 | 62.51 | 
25 | Cc1cc2c(C(C)C)c(O)c(O)c(C=O)c2c(O)c1-c1c(C)cc2c(C(C)C)c(O)c(O)c(C=O)c2c1O [YU034280, GOSSYPOL-ACETIC ACID COMPLEX, reference compound] |  |  | 78.2 |  | 64.46 | 54.61 | 
26 | C[C@@](Cc1ccc(O)c(O)c1)(NN)C(=O)O [YU034292, CARBIDOPA, reference compound] | 53.76 | 26.51 | 100 | 80.27 |  |  | 
27 | O=c1oc2c(O)c(O)cc3c(=O)oc4c(O)c(O)cc1c4c23 [YU034320, ELLAGIC ACID, reference compound] | 2.37 | 9.70 |  | 12.08 | 31.44 | 37.80 | Inhibitory effect (percent) (JARID1B; [2]): 61.25% and 40.88%
28 | O=C(O)CCCC[C@@H]1SC[C@@H]2NC(=O)N[C@@H]21 [YU034331, BIOTIN, reference compound] |  |  | 104 |  | 99.61 | 104.67 | 
29 | N[C@@H](Cc1ccc(O)c(O)c1)C(=O)O [YU034332, LEVODOPA, reference compound] | 14.27 | 41.47 | 68.8 | 55.74 |  |  | 
30 | CCCCC(CC)CNC(=N)NC(=N)NCCCCCCNC(=N)NC(=N)NCC(CC)CCCC (centres unmarked) [YU034347, ALEXIDINE HYDROCHLORIDE, reference compound] | 5.60 | 66.40 | 80.6 | 72.00 |  |  | 
